PubChem BioAssay AID2060895 (Molecular Pharmacology Branch, DTP, NCI, 2025)

System: PDC 899932-113-R3-J6 complex spheroid viability
Assay: Anticancer human tumor 899932-113-R3-J6-PDC patient-derived melanoma cell line growth inhibition [RAS]
Details: for IC50: curve of first compound; for viability, T/C: stronger effect = lower value; active = viability on the fitted dose curve at most 10% of control; inactive = the rest
Outline: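 Tumour cells grown as complex spheroids with HUVEC endothelial cells and mesenchymal stem cells, treated with RAS pathway inhibitor combinations. Each agent spans half-log steps from near clinical Cmax, or 10 microM where Cmax is unknown.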

[1] = second compound 0.0316 µM, first compound 0.0316 µM
[2] = second compound 0.0316 µM, first compound 0.1 µM
[3] = second compound 0.0316 µM, first compound 0.316 µM
[4] = second compound 0.0316 µM, first compound 1 µM
[5] = second compound 0.0316 µM, first compound 3.16 µM
[6] = second compound 0.0316 µM, first compound 10 µM
[7] = second compound 0.1 µM, first compound 0.0316 µM
[8] = second compound 0.1 µM, first compound 0.1 µM
[9] = second compound 0.1 µM, first compound 0.316 µM
[10] = second compound 0.1 µM, first compound 1 µM
[11] = second compound 0.1 µM, first compound 3.16 µM
[12] = second compound 0.1 µM, first compound 10 µM
[13] = second compound 0.316 µM, first compound 0.0316 µM
[14] = second compound 0.316 µM, first compound 0.1 µM
[15] = second compound 0.316 µM, first compound 0.316 µM
[16] = second compound 0.316 µM, first compound 1 µM
[17] = second compound 0.316 µM, first compound 3.16 µM
[18] = second compound 0.316 µM, first compound 10 µM
[19] = second compound 1 µM, first compound 0.0316 µM
[20] = second compound 1 µM, first compound 0.1 µM
[21] = second compound 1 µM, first compound 0.316 µM
[22] = second compound 1 µM, first compound 1 µM
[23] = second compound 1 µM, first compound 3.16 µM
[24] = second compound 1 µM, first compound 10 µM
[25] = second compound 3.16 µM, first compound 0.0316 µM
[26] = second compound 3.16 µM, first compound 0.1 µM
[27] = second compound 3.16 µM, first compound 0.316 µM
[28] = second compound 3.16 µM, first compound 1 µM
[29] = second compound 3.16 µM, first compound 3.16 µM
[30] = second compound 3.16 µM, first compound 10 µM
[31] = second compound 10 µM, first compound 0.0316 µM
[32] = second compound 10 µM, first compound 0.1 µM
[33] = second compound 10 µM, first compound 0.316 µM
[34] = second compound 10 µM, first compound 1 µM
[35] = second compound 10 µM, first compound 3.16 µM
[36] = second compound 10 µM, first compound 10 µM
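Throughout, for viability, T/C: spheroids exposed to agents for seven days before readout; 100% = DMSO vehicle control wells.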

CC(C)NCC(C(=O)N1CCN(c2ncnc3c2C(C)CC3O)CC1)c1ccc(Cl)cc1 (stereo unspecified) + C#Cc1c(F)ccc2cc(O)cc(-c3ncc4c(N5CC6CCC(C5)N6)nc(OCC56CCCN5CC(F)C6)nc4c3F)c12
inactive: viability, T/C [1] 99.5% | viability, T/C [2] 113% | viability, T/C [3] 103% | viability, T/C [4] 76.9% | viability, T/C [5] 67.4% | viability, T/C [6] 34.8% | viability, T/C [7] 108% | viability, T/C [8] 109% | viability, T/C [9] 97.3% | viability, T/C [10] 86% | viability, T/C [11] 68.9% | viability, T/C [12] 34.4% | viability, T/C [13] 105% | viability, T/C [14] 115% | viability, T/C [15] 93.7% | viability, T/C [16] 99.6% | viability, T/C [17] 72% | viability, T/C [18] 42.5% | viability, T/C [19] 110% | viability, T/C [20] 105% | viability, T/C [21] 107% | viability, T/C [22] 94.8% | viability, T/C [23] 83.1% | viability, T/C [24] 41.5% | viability, T/C [25] 110% | viability, T/C [26] 120% | viability, T/C [27] 97.6% | viability, T/C [28] 101% | viability, T/C [29] 80.7% | viability, T/C [30] 44.8% | viability, T/C [31] 125% | viability, T/C [32] 112% | viability, T/C [33] 101% | viability, T/C [34] 88.5% | viability, T/C [35] 79.6% | viability, T/C [36] 33.7%
6.45 µM: IC50 (second compound 10 µM)
5.47 µM: IC50 (second compound 0.0316 µM)
7.53 µM: IC50 (second compound 0.316 µM)
8.55 µM: IC50 (second compound 3.16 µM)
7.94 µM: IC50 (second compound 1 µM)
5.82 µM: IC50 (second compound 0.1 µM)

C[C@@H](NC(=O)c1ncnc(N)c1Cl)c1ncc(C(=O)Nc2cc(C(F)(F)F)c(Cl)cn2)s1 + C=CC(=O)N1CCN(c2nc(OCC3CCCN3C)nc3c(F)c(-c4nc(N)cc(C)c4C(F)(F)F)c(Cl)cc23)C(C)C1
7.01 µM: IC50 (second compound 0.01 µM)
7.26 µM: IC50 (second compound 0.0316 µM)
6.95 µM: IC50 (second compound 0.00316 µM)
7.41 µM: IC50 (second compound 0.316 µM)
inactive: viability, T/C (second compound 0.00316 µM, first compound 0.0316 µM) 131% | viability, T/C (second compound 0.00316 µM, first compound 0.1 µM) 152% | viability, T/C (second compound 0.00316 µM, first compound 0.316 µM) 169% | viability, T/C (second compound 0.00316 µM, first compound 1 µM) 164% | viability, T/C (second compound 0.00316 µM, first compound 3.16 µM) 103% | viability, T/C (second compound 0.00316 µM, first compound 10 µM) 25.8% | viability, T/C (second compound 0.01 µM, first compound 0.0316 µM) 140% | viability, T/C (second compound 0.01 µM, first compound 0.1 µM) 153% | viability, T/C (second compound 0.01 µM, first compound 0.316 µM) 153% | viability, T/C (second compound 0.01 µM, first compound 1 µM) 154% | viability, T/C (second compound 0.01 µM, first compound 3.16 µM) 106% | viability, T/C (second compound 0.01 µM, first compound 10 µM) 25% | viability, T/C [1] 121% | viability, T/C [2] 143% | viability, T/C [3] 157% | viability, T/C [4] 154% | viability, T/C [5] 104% | viability, T/C [6] 29.1% | viability, T/C [7] 142% | viability, T/C [8] 152% | viability, T/C [9] 153% | viability, T/C [10] 160% | viability, T/C [11] 115% | viability, T/C [12] 26.9% | viability, T/C [13] 136% | viability, T/C [14] 136% | viability, T/C [15] 168% | viability, T/C [16] 161% | viability, T/C [17] 108% | viability, T/C [18] 29.3% | viability, T/C [19] 124% | viability, T/C [20] 144% | viability, T/C [21] 149% | viability, T/C [22] 151% | viability, T/C [23] 114% | viability, T/C [24] 29.9%
7.6 µM: IC50 (second compound 1 µM)
7.39 µM: IC50 (second compound 0.1 µM)

CCC(CC)c1cc(NC2CCC(N)C2)n2nccc2n1 (stereo unspecified) + C#Cc1c(F)ccc2cc(O)cc(-c3ncc4c(N5CC6CCC(C5)N6)nc(OCC56CCCN5CC(F)C6)nc4c3F)c12
1.69 µM: IC50 (second compound 0.0316 µM)
1.66 µM: IC50 (second compound 0.316 µM)
active: viability, T/C [5] 0.88% | viability, T/C [6] 0.24% | viability, T/C [11] 0.78% | viability, T/C [12] 0.23% | viability, T/C [17] 0.84% | viability, T/C [18] 0.9% | viability, T/C [23] 1.22% | viability, T/C [24] 0.22% | viability, T/C [29] 0.97% | viability, T/C [30] 0.24% | viability, T/C [35] 0.5% | viability, T/C [36] 0.27%
inactive: viability, T/C [1] 96.8% | viability, T/C [2] 91.5% | viability, T/C [3] 103% | viability, T/C [4] 91.5% | viability, T/C [7] 104% | viability, T/C [8] 104% | viability, T/C [9] 92.9% | viability, T/C [10] 87.3% | viability, T/C [13] 107% | viability, T/C [14] 93.9% | viability, T/C [15] 98.5% | viability, T/C [16] 88.3% | viability, T/C [19] 112% | viability, T/C [20] 112% | viability, T/C [21] 120% | viability, T/C [22] 95.2% | viability, T/C [25] 103% | viability, T/C [26] 107% | viability, T/C [27] 107% | viability, T/C [28] 100% | viability, T/C [31] 116% | viability, T/C [32] 105% | viability, T/C [33] 105% | viability, T/C [34] 94.2%
1.79 µM: IC50 (second compound 3.16 µM)
1.64 µM: IC50 (second compound 0.1 µM)
1.74 µM: IC50 (second compound 1 µM)
1.72 µM: IC50 (second compound 10 µM)
